Experimental findings from a melting point compilation (Tetko et al.; mined from patent text by program, amines drawn as free bases though some values may be those of a salt) are described below.

In the case of `COc1cc(C2=CCCCC2)c(Cl)cc1C(=O)N1Cc2ccc(C(=O)N(C)CCCN(C)C)n2Cc2ccccc21`, the melting point fell in the range of 116 to 119 °C. Under `Cc1ccc(C(=O)c2cc(Br)c(CC(=O)O)n2C)cc1` stands 162 to 164 °C; under `O=c1[nH]c(C2CC2)nc2c1cnn2-c1ncc(C(F)(F)F)cc1Cl`, 239 °C. Regarding `CCCCN(CCCC)c1ccc(C=CC=CC2=C(C#N)C(=C(C#N)C#N)OC2(c2ccccc2)C(F)(F)F)c(OC)c1` (configuration not stated), the melting point lay in the range of 190 to 192 °C. Under `O=C1C(=O)c2ccccc2C2=C1SCC1(CCSCC1)O2` stands 221 to 223 °C; under `COc1ccc(Nc2ccc(Cl)cc2C(=O)O)cc1`, 188 to 189 °C. The figure for `O=c1[nH]c2cc3ccccc3cc2[nH]c1=O` is over 250 °C; for `CCOC(=O)C1=C(C)NC(CSc2ccccc2)=C(C(=O)OCC)C1c1cccc([N+](=O)[O-])c1` (configuration not stated) it is 92 to 94 °C; for `Cc1cc(C)cc(NC(=N)Nc2ccccc2C(F)(F)F)c1` it is 127 °C.

Turning to `OCCCCCCCCCCCOc1ccccc1`, the melting point lay in the range of 56 to 58 °C. The figure for `COCCn1nc2c(N)nc3c(c2c1CC(C)(C)O)CCCC3` is 163 to 165 °C; for `O=C1CCC(N2C(=O)c3cccc(CNC(=O)Nc4ccccn4)c3C2=O)C(=O)N1` (configuration not stated) it is over 260 °C; for `CCOC(=O)c1cn(C2Cc3cc(F)ccc3C2=O)c(C(=O)OCC)n1` (configuration not stated) it is 138 °C. On to `CC(C)CCC1(CCc2ccccc2)CC(O)=CC(=O)O1` (configuration not stated), for which the melting point lay in the range of 99 to 100 °C. The figure for `Nc1ncnc2c1nnn2C1C=CCC1` (configuration not stated) is 207 to 208 °C. Turning to `CCc1ccc(Nc2nc3cc(NC(=O)c4ccc([N+](=O)[O-])cc4Cl)ccc3o2)cc1`, the melting point is over 250 °C. Under `CCOC(=O)C1=C(C)NC(C)=C(C(=O)OCC)C1c1ccccc1/C=C(\C)c1ccccc1` stands 141 to 142 °C. The figure for `O=C(O)c1ccc(-c2nc(-c3ccc(Cl)s3)cs2)cc1` is 283 to 284 °C; for `CC1Oc2ccccc2-n2cnc(-c3noc(C4CC4)n3)c21` (configuration not stated) it is 162 °C.

`N#Cc1ccc2oc(CCc3ccc(C(=O)Nc4cnccn4)cc3)cc2c1` showed a melting point of 183 to 185 °C.

Consider `COC(=NS(=O)(=O)c1nc(-c2ccccc2C)ns1)C(C)C`, for which the melting point is 116 to 118 °C.

For the compound `COc1ccn2nc(-c3ccccc3F)c(-c3ccc(=O)n(C(C)C)n3)c2c1`, the melting point lay in the range of 174 to 175 °C. For the compound `CC(=O)N1CCc2c(c3ccc(-n4ccc(OCc5ccccc5)cc4=O)nc3n2C)C1`, the melting point lay in the range of 206 to 208 °C. Under `CC(=O)c1cccc(NC(=O)NC2N=C(c3ccccc3F)c3cccc(C)c3N(CC(=O)N3CC4CCC(CC4)C3)C2=O)c1` (configuration not stated) stands over 250 °C; under `COc1ccc(-c2nc3ccc(C(C)(C)CNC(=O)C(C)C)cc3[nH]2)cc1`, 218 to 220 °C. Under `COC(=O)c1c(-c2ccc(C)cc2)c2cc(OCc3ccccc3)ccc2c(=O)n1CC(C)C` stands 142 to 143 °C; under `O=C(CCCO)Nc1cccc(/C=C/c2nc3ccccc3s2)c1`, 191 to 192 °C. Under `CCCc1cc2cccc(C(=O)OCOC(=O)C(C)(C)C)c2n1Cc1ccc(-c2ccccc2-c2nnn[nH]2)cc1` stands 101 to 103 °C. Compound `O=C(O)c1cn(-c2ccc(F)cc2F)c2cc(N3CCC4(C3)OCCCO4)c(F)cc2c1=O` yielded a melting point of 168 to 170 °C.

`C=CCOC[C@H](NC(=O)[C@@H](NC(=O)[C@H](Cc1ccc(OCC=C)cc1)NC(=O)OC(C)(C)C)C(C)C)C(=O)OC` registered a melting point of 109 to 111 °C. Under `CCCCc1ccc(CCCC(=O)O)cc1` stands 56 to 58 °C.

In turn, `Fc1ccc(-c2cc(C(F)(F)F)n3ncc(-c4cccnc4)c3n2)cc1Cl` showed a melting point of 190 °C. Under `O=C(CCCc1ccc(-c2ccc(Cl)cc2)cc1)c1ccc(CN2CCCC2)cc1` stands 114 to 115 °C; under `Cc1cc2[nH]c(=O)c3cnc(Cl)cc3n2n1`, over 300 °C; under `CC(=O)N1Cc2cccn2N(C)c2ccncc21`, 125 to 130 °C. `C[C@@H](C(=O)O)N(C(=O)[C@@H]1CS[C@H](c2ccccc2O)N1C(=O)CCSC(=O)c1ccccc1)c1ccccc1`: the melting point lay in the range of 95 to 100 °C. `COc1cc(C(=O)NCCc2ccccc2)cc([N+](=O)[O-])c1OC` displayed a melting point of 121 to 122 °C.

`CCOC(=O)C1CCc2c([nH]c3ccc(C)cc23)C1` (configuration not stated) showed a melting point of 117 to 118 °C.

As to `O=C(Sc1ccccn1)c1ccccc1`, the melting point lay within 48 to 50 °C. Under `CCC(C#N)C(=O)Nc1ccc(C2=NNC(=O)CC2C)cc1` (configuration not stated) stands 225 to 227 °C.

Regarding `COc1ccc(C2CCN(c3c(C)c(C)c4c(c3C)C(O)C(C)(C)O4)CC2)cc1OC` (configuration not stated), the melting point fell in the range of 140 to 142 °C. Under `COc1cccc(OC)c1C(=O)NCCSCc1cccc(Cl)c1` stands 90 to 91 °C. Regarding `CC=C(c1ccccc1)c1c(C)nn(C)c1NC(=O)Nc1ccccc1`, the melting point fell in the range of 173 to 195 °C. Regarding `C=CCOCc1c(CO)sc2c(=O)c(C(=O)NCc3ccc(Cl)cc3)cn(C)c12`, the melting point fell in the range of 184 to 185 °C. The figure for `Cc1oc(-c2ccccc2)nc1COc1ccc(C=O)cc1` is 103 to 105 °C. The compound `CNC(=O)[C@@H](C[C@H](O)[C@H](CC1CCCCC1)NC(=O)[C@H](Cc1cscn1)NC(=O)[C@@H](CC(=O)N1CCOCC1)Cc1ccc(OC)cc1)C(C)C` displayed a melting point of 128 to 130 °C. The figure for `O=C(CSc1nc2ccccc2[nH]1)c1ccccc1` is 167 °C; for `CCOC(=O)c1cnc2c(OC)csc2c1Nc1ccccc1C` it is 141 to 143 °C; for `Brc1ccc(OCCCCCCN2CCN(c3nccs3)CC2)cc1` it is 66 to 68 °C. On to `COc1cc(S(C)(=O)=O)c(C)cc1OCC(=O)NCC(O)COc1ccccc1` (configuration not stated), for which the melting point was in the range of 103 to 105 °C.

In turn, `CN(C)C(=N[N+](=O)[O-])N(C)Cc1ccc(Cl)nc1` came in with a melting point of 99 to 101 °C.

Compound `CC(C)n1nc(-c2sc(C(=O)NCCN3CCOCC3)nc2-c2ccccc2)ccc1=O` registered a melting point of 196 to 198 °C. The figure for `O=c1[nH]c2cc(Cl)ccc2n1C1CCN(CCCn2c(=S)[nH]c3ccccc32)CC1` is 267 °C.

With `CNS(=O)(=O)Cc1ccc2[nH]cc(CCN)c2c1`, the melting point lay within 179 to 181 °C. For `O=C1C=CC(O)(c2nc3ccccc3s2)C(Sc2ccccc2)C1` (configuration not stated), the melting point is 66 °C. `COc1cccc2c(=O)n(-c3ccc(Br)cc3)c(-c3cc(C)c(OCCO)c(C)c3)nc12` gave a melting point of 100 to 102 °C. The figure for `COc1ccc2c(c1)CC(C(=O)O)N2C(C)=O` (configuration not stated) is 164 to 167 °C.

On to `CN(C)C=Cc1ccc(OC(F)(F)F)cc1[N+](=O)[O-]`, for which the melting point was determined as 59 °C. Take `COc1ccc(C(=O)O)c(OC(C)C)c1Br`: the melting point lay within 109 to 110 °C.

In turn, `COc1ccc(N2CCN(c3ccc(NC(=O)Oc4ccccc4)nc3)CC2)cc1` returned a melting point of 130 to 132 °C.

Turning to `CCOc1cc(N(C)C)c(Cl)cc1C(=O)NC1CCN(Cc2ccccc2)C1` (configuration not stated), the melting point fell in the range of 112 to 113 °C. On to `O=C1Nc2cc(NC(=O)c3cccn(-c4ccc(F)cc4)c3=O)ccc2/C1=C/c1ccc[nH]1`, for which the melting point was over 300 °C.

`CCOC(=O)C1CCN(c2nc(COc3ccc(C=O)cc3OC)c(C)s2)CC1`: the melting point lay within 97 to 98 °C. As for `CCSc1ncnc2c(N3CCCCC3)nc(Cl)nc12`, the melting point fell in the range of 110 to 111 °C.

`O=Cc1cc(O)ccc1-c1cccnc1` gave a melting point of 182 to 184 °C. Under `CON1C(C)(C)CC(OC(=O)c2cc(C(C)(C)C)c(O)c(C(C)(C)C)c2)CC1(C)C` stands 126 to 128 °C; under `CC1(C)CC(=O)OC1c1ccc(Cl)c([N+](=O)[O-])c1` (configuration not stated), 134 to 136 °C.

On to `Oc1cccc(CCNCc2ccccc2)c1`, for which the melting point lay within 86 to 88 °C. Under `Cc1c(NC(=O)c2ccc(OC[C@@H]3CCCO3)cc2)ccc2cc(CNC3CCOCC3)cnc12` stands 158 to 159 °C; under `CC=CCNc1cc(C(=O)O)cc(S(=O)(=O)Nc2ccc(NC(C)=O)cc2)c1Nc1ccc(NC(C)=O)cc1`, 265 °C; under `COC1CCC2C3CCc4cc(O)c(C=O)cc4C3CCC12C` (configuration not stated), 120 to 121 °C. As to `O=C(CCl)Nc1ccc2c(c1NC(=O)Cc1ccc(F)cc1)C(=O)c1ccccc1C2=O`, the melting point lay in the range of 213 to 214 °C.

For `CC(C)(C)ONC(=O)c1ccc(Cc2ccc(N)cc2)cc1`, the melting point is 110 to 118 °C. Consider `CN(C)C(=S)ON1C(=O)C2CCCCC2C1=O` (configuration not stated), for which the melting point was in the range of 124 to 126 °C. The figure for `COc1ccccc1N1CCN(CCCCN2CCN(c3cccc(Cl)c3)C2=O)CC1` is 87 to 89 °C; for `CC1CC(c2cc3c(F)cccc3s2)CCN1` (configuration not stated) it is 63 to 65 °C; for `CC(=O)Nc1ccc(C=C2c3ccccc3CCc3ccccc32)cc1` it is 135 °C. Under `COCc1ccc2ccc(C=O)nc2c1Cl` stands 118 to 121 °C; under `CCOC(=O)CSc1ccc([N+](=O)[O-])cc1C1C(C(=O)OC)=C(C)N(C)C(C)=C1C(=O)OC`, 118 °C.

As to `CCOC(=O)C12CC1CN(S(=O)(=O)c1ccc(C)cc1)C2c1ccccc1` (configuration not stated), the melting point lay in the range of 123 to 124 °C. Compound `CCc1nc2c(-c3cc4cc(Br)oc4cc3C)ncnc2n1C(C1CC1)C1CC1` gave a melting point of 177 to 178 °C. Take `C[C@@H]1N=C(c2ccccc2F)c2c(ccc(N)c2Cl)N(C)C1=O`: the melting point lay in the range of 222 to 226 °C. The figure for `CCOC(=O)C1=C(C)N2CCCC2=C(C(C)=O)C1c1cccc([N+](=O)[O-])c1` (configuration not stated) is 161 °C. Under `CCC(CC)c1ccc(CO)c2nc(Oc3c(C)cc(Cl)cc3Cl)n(C)c12` stands 141 to 143 °C; under `NC(c1ccnc2cc(Cl)ccc12)C1CCCC(CNc2ccnc3cc(Cl)ccc23)C1` (configuration not stated), 92 to 95 °C. On to `Cc1ccc2c(n1)C(=O)C(N)=C(Cl)C2=O`, for which the melting point worked out at 270 °C. Under `N#Cc1ccc2sc3c(c2c1)CC(CO)CC3` (configuration not stated) stands 165 to 166 °C.

Broadly, the melting point is the temperature, or range, at which the solid turns liquid.
